According to patent EP0738149B1 (priority 1994, dated 1995):
Structures can show the parent of a compound that is named as a salt. Where two headings read alike, the source gives them in different places.

Key:
[1] = test system: mice; assay: Maximal electroshock (MES) model in mice, i.p.;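 further: Electroshock-induced convulsion model serving to demonstrate antiepileptic efficacy against generalized and partial seizures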; type: in vivo; conditions: Mus musculus, ip, Table 15
[2] = in vivo; conditions: mouse, in vivo, ip
Procedure: (§1) Neurotoxicity of the claimed agents was also assessed in mice (i.p. administration) by the rotorod ataxia test and/or in rats (p.o. administration) by positional sense test and gait stance test. […] The term quantitating the neurotoxicity is the medial neurological toxic dose (TD50), was determined in the above tests.

[3] = test system: mice; assay: in vivo; conditions: mouse, in vivo, ip
Procedure: as §1

[4] = test system: rats; assay: Electrically kindled rat model of epilepsy, p.o.; type: in vivo; conditions: po, read-out: ED50 (prevented seizures)
Description: The rat electrical kindling model of epilepsy has been known to show efficacy of antiepileptic agents against complex partial seizures that evolve into generalized motor seizures. In these tests, rats were electrically stimulated via corneal electrodes twice daily for approximately 5 days and then once daily for an additional 10 days. Once the seizure criteria, as described by R.J. Racine, et al., Electroenceph. Clin. Neurophysiol. 32: 281-294 (1972), were met, the test substance was administered p.o. to rats, and the rat electrically stimulated, and observed for the presence or absence of a seizure.

[5] = test system: mice; conditions: Mus musculus, ip
[6] = test system: rats; assay: Maximal electroshock (MES) model in rats, p.o.;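 on all read-outs here: rat MES model gauging antiepileptic efficacy versus generalized and partial seizures after oral dosing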; type: in vivo; conditions: Table 15; for ED50: Rattus norvegicus, po
[7] = in vivo; conditions: rat, in vivo, po
Procedure: as §1

[8] = test system: rats; assay: Neurotoxicity in rats (positional sense test and gait stance test), p.o.; conditions: rats, p.o.; Table 16
Procedure: as §1

[9] = test system: mechanically dissociated neonatal rat cerebellum; assay: Reversal of NMDA induced cell death in cultures of neonatal rat cerebellum; type: cell-based; conditions: for SURVIVING CELL IN CULTURE: relative to control (100%); for PERCENT PROTECTION: Cell Survival minus the NMDA effect; for EFFECTIVE PROTECTION: X x 100/70
Procedure: (§2) The cerebellum was aseptically dissociated from 6 or 7-day old rat pups and placed in a 15ml sterile plastic conical tube containing 3ml of Dulbecco's modified Eagle's medium (DMEM) with a high glucose concentration ([…]) and 2mM (v/v) L-glutamine and an antibiotic antimitotic mixture. The cerebella were then dissociated after 20-25 passages through a sterile 13 gauge, 10cm long stainless steel needle attached to a 5ml syringe with an inserted 45 micrometer pore nylon sieve. The dissociated cells were centrifuged at 200g for 5 minutes. The supernatant was discarded and the cells resuspended in medium enriched with 15% (v/v) heat inactivated fetal calf serum. Cell viability was determined by the tryptan blue exclusion test.
(§3) Cells were plated at a density of 200/mm^2 on poly-L-lysine coated surfaces. Poly-L-lysine coated glass coverslips were prepared at least one hour in advance of plating by immersing sterile coverslips in sterile distilled water solution containing 15 microgram/ml poly-L-lysine, and washing in sterile water just prior to use. The plated cells were covered with enriched medium and incubated at 37°C in an atmosphere of 5% CO2 in air and 97% humidity. After three days in culture, the media was replaced with media containing the desired test compound. Each test compound was tested in duplicate. Toxic-dose response was determined for each compound.
Four groups were run in each set of experiments; • I. Control, consisting of enriched media alone, • II. N-methyl-D-aspartate (NMDA, 1mM for 3 hours) as the cytotoxic challenge, • III. Test compound plus NMDA, and • IV. Positive control, spermine(0.01 micromoles) plus NMDA.
Nerve cell survival was evaluated by phase contrast microscopy and tryptan blue staining after 24 hours.
Surviving cells in culture are measured relative to control (100%), as described above. Percent protection is the Cell Survival for the test compound minus the NMDA effect. Thus, maximal protection is 100% minus 30% NMDA effect i.e. […]. The Effective Protection was calculated as the percent of the Percent Protection (X) divided by the maximal protection value (e.g. X x 100/70).

[10] = test system: mechanically dissociated neonatal rat cerebellum; assay: Enhancement of cell survival in cultures of neonatal rat cerebellum (no NMDA); type: cell-based; conditions: 24 hours after addition, percentage of the number of control cells on the fourth day
Procedure: as §2, with “The supernatant was discarded and the cells resuspended in medium enriched with 15% (v/v) heat inactivated fetal calf serum.” left out
as §3, with “The plated cells were covered with enriched medium and incubated at 37°C in an atmosphere of 5% CO2 in air and 97% humidity.” left out
Cell cultures were grown as described above but in the absence of NMDA and after 3 days a dose of test compound was added. Cell survival was monitored as described above.

[11] = test system: Male mongolian gerbils; assay: Global brain ischemia in gerbils (CA1 pyramidal neurons); type: in vivo; conditions: 3 injections, fraction of hippocampi protected from ischemia, 14 days post-ischemia
Procedure: Each artery was clamped for 5 minutes with aneurysm clips to produce global brain ischemia. The anesthesia was discontinued upon clamping. After 5 minutes the clamps were removed and the wound closed with skin clips.
For treatment, the test compound or vehicle were injected intra-peritoneally (ip) in a volume of 50 microliters of solvent per 10g body weight. The first injection was given two minutes after clamp removal, and thereafter daily for the next 2 post-operative days (total of 3 injections).
Seven groups each of 4-8 animals were compared: • I. Control; (sham- or unoperated and saline treated), • II. Vehicle treated, unoperated (when solvent is other than saline), • III. Ischemia - untreated or saline treated), • IV. Ischemia - vehicle treated (when solvent is other than saline), • V. Ischemia - Test compound treated, one sub-group per concentration tested, • VI. Ischemia and pentobarbital (40 mg/kg) as positive control).
Analysis of neuronal damage was performed 14 days post-ischemia by counting pyramidal neurons throughout the CA1 layer of the anterior hippocampus in […] thick (paraffin) coronal brain sections stained with hematoxylin and erosin.
Percent Protection values represent the fraction of hippocampi protected from ischemia in a group of animals treated with the stated dose of compound.

[12] = test system: rats; conditions: Rattus norvegicus, po, read-out: RATS scMet ED50
[13] = test system: male ICR albino mice; assay: Hypobaric hypoxia survival time in mice; type: in vivo
Procedure: Dessicator B was disconnected and allowed to equilibrate with room air whilst dessicator A was evacuated to a pressure of 100mmHg. […] The survival time from the moment of induction of hypoxia to the time of cessation of respiration was recorded for each mouse for a maximum of 15 minutes after which time room air was reintroduced to dessicator B. Survivors were monitored for signs of lethargy or vitality.
Effect of drug treatment was assessed as the percent of the survival time of the drug treated group with respect to the saline injected or vehicle injected control group. Control groups were run twice, before and after each experimental group and consisted of 12-16 mice in groups of 4 mice. Each experimental group always consisted of 4 mice to ensure a constant residual volume of oxygen in all tests. The effect of each dose of test drug was determined in duplicate i.e. two groups of 4 mice.
All drugs were administered intra-peritoneally at the dose indicated one hour prior to exposure to hypoxia.

[14] = read-out: MICE scMet ED50, mice, i.p., Table 16
[15] = 0.005 µM + NMDA 1mM for 3 hours
[16] = 0.010 µM + NMDA 1mM for 3 hours
[17] = 0.100 µM + NMDA 1mM for 3 hours
[18] = rats, p.o., read-out: RATS MES 50
[19] = 1.000 µM + NMDA 1mM for 3 hours

| SMILES | ED50 [1] | TD50 ([2]; MICE TD50) | MICE TD50 [3] | ED50 [5, 14] | TD50 [7] | RATS TD50 [8] | SURVIVING CELL IN CULTURE [9, 15] | PERCENT PROTECTION ([9]; 0.005 µM + NMDA) | EFFECTIVE PROTECTION ([9]; 0.005 µM + NMDA) | SURVIVING CELL IN CULTURE [9, 16] | PERCENT PROTECTION ([9]; 0.010 µM + NMDA) | EFFECTIVE PROTECTION ([9]; 0.010 µM + NMDA) | PERCENT PROTECTION ([11]; 0.1 mg/kg ip) | PERCENT PROTECTION ([11]; 1.0 mg/kg ip) | PERCENT PROTECTION ([11]; 10.0 mg/kg ip) | ED50 [12] | ED50 [6, 18] | other results |
| --- | --- | --- | --- | --- | --- | --- | --- | --- | --- | --- | --- | --- | --- | --- | --- | --- | --- | --- |
| CC(=O)NC1CCc2ccccc21 (racemic) [Example 17, (rac)-N-Acetyl-1-aminoindan] | 33 mg/kg | 90 mg/kg | 90 mg/kg | 71.5 mg/kg |  |  |  |  |  |  |  |  |  |  |  |  |  | ED50 [4]: < 75 mg/kg |
| NC(=O)CN[C@H]1CCc2ccccc21 [Example 2, (S)-N-(2-Acetamido)-1-aminoindan.HCl] | 39 mg/kg |  |  | > 150 mg/kg | > 500 mg/kg | >500 mg/kg | 56% | 26% | 37% | 51% | 21% | 30% | 0% | 50.0% | 37.5% | > 250 mg/kg |  | RATS MES 50 ([6]; rats, p.o.): 21 mg/kg; TD50 ([2]; MICE TD50, mice, Table 15): 137 mg/kg; TD50 ([2]; MICE TD50, mice, Table 16): 137 mg/kg; SURVIVING CELL IN CULTURE [9, 17]: 33%; PERCENT PROTECTION ([9]; 0.100 µM + NMDA): 3%; EFFECTIVE PROTECTION ([9]; 0.100 µM + NMDA): 4%; % ENHANCED SURVIVAL ([10]; 0.005 µM): 140%; % ENHANCED SURVIVAL ([10]; 0.01 µM): 125% |
| CC(=O)N[C@H]1CCc2ccccc21 [Example 19, (S)-N-Acetyl-1-aminoindan] | 40 mg/kg | 61 mg/kg | 61 mg/kg | 86 mg/kg | > 500 mg/kg | >500 mg/kg | 30% | 0% | 0% | 42% | 12% | 17% | 25.0% | 0% | 37.5% | > 250 mg/kg | 24 mg/kg | SURVIVING CELL IN CULTURE ([9]; 0.001 µM + NMDA 1mM for 3 hours): 80%; PERCENT PROTECTION ([9]; 0.001 µM + NMDA): 50%; EFFECTIVE PROTECTION ([9]; 0.001 µM + NMDA): 71%; SURVIVING CELL IN CULTURE [9, 19]: 15%; PERCENT PROTECTION ([9]; 1.000 µM + NMDA): -15%; % ENHANCED SURVIVAL ([10]; 0.005 µM): 120%; ED50 [4]: > 50 mg/kg |
| COc1ccc2c(c1OC)CC[C@H]2NC(C)=O [Example 21, (R)-4,5-Dimethoxy-N-acetyl-1-aminoindan] | 40 mg/kg | 137 mg/kg | 137 mg/kg | 150 mg/kg | > 500 mg/kg | >500 mg/kg |  |  |  |  |  |  |  |  |  | > 250 mg/kg | 21 mg/kg |  |
| CC(=O)N[C@@H]1CCc2ccc(F)cc21 [Example 23, (R)-6-Fluoro-N-acetyl-1-aminoindan] | 65 mg/kg | 155 mg/kg | 155 mg/kg | 155 mg/kg | > 500 mg/kg | >500 mg/kg |  |  |  |  |  |  |  |  |  | > 250 mg/kg | 25 mg/kg |  |
| C#CCN[C@H]1CCc2ccccc21.Cl [G, (S)-N-propargyl-1-aminoindan HCl salt] | 57 mg/kg |  |  |  |  |  |  |  |  |  |  |  |  |  |  | > 250 mg/kg |  | ED50 ([6]; read-out: RATS MES 50, rats, p.o.): 57 mg/kg; ED50 ([5]; read-out: MICE scMet ED50): > 250 mg/kg |
| N[C@@H]1CCc2ccc(F)cc21 [J, (R)-6-fluoro-1-aminoindan] | 65 mg/kg | 78 mg/kg | 78 mg/kg |  | > 50 mg/kg | >50 mg/kg | 108% | 78% | 111% | 79% | 49% | 70% | 27.5% | 25.0% | 25.0% | > 100 mg/kg | < 50 mg/kg | PROTECTION % OF RESPECTIVE CONTROL ([13]; 50 mg/kg ip one hour prior to hypoxia): 305±185 % OF RESPECTIVE CONTROL; PROTECTION % OF RESPECTIVE CONTROL ([13]; 100 mg/kg ip one hour prior to hypoxia): 241±56 % OF RESPECTIVE CONTROL; SURVIVING CELL IN CULTURE [9, 17]: 62%; PERCENT PROTECTION ([9]; 0.100 µM + NMDA): 32%; EFFECTIVE PROTECTION ([9]; 0.100 µM + NMDA): 46%; SURVIVING CELL IN CULTURE [9, 19]: 53%; PERCENT PROTECTION ([9]; 1.000 µM + NMDA): 23%; EFFECTIVE PROTECTION ([9]; 1.000 µM + NMDA): 33%; SURVIVING CELL IN CULTURE ([9]; 5.000 µM + NMDA 1mM for 3 hours): 60%; PERCENT PROTECTION ([9]; 5.000 µM + NMDA): 30%; EFFECTIVE PROTECTION ([9]; 5.000 µM + NMDA): 43% |
